Laboratory results published in patent US6630570B1, “Short-chain peptide-dye conjugates as contrast media for optical diagnosis” (priority 1999, dated 2003).
“Also recorded” adds a separate entry of the source. No end group written: not given here.

How the values were obtained:
RIN38-VIP1-cells = assay: Cell imaging by fluorescence microscopy, RIN38-VIP1 cells; assay type: cell-based, rat; details: 10 μM
Description: (§1) The binding and imaging of the compounds according to the invention were studied in vitro in human tumor cells, and the receptors for vaso-active intestinal peptide and/or somatostatin and/or neurotensin were expressed. To this end, 5×10^5 tumor cells were incubated in 1.5 ml of medium, which contained the test substance. Different concentrations of the substances (10 nM-10 μM) were used, and the incubation period varied (1 minute-24 hours). After the incubation, the cells were set, and microscopic preparations were produced. The evaluation was carried out on a Zeiss Axiovert 135-fluorescence microscope, which was equipped with a Cy7-(Exciter HQ 710/70 nm, emitter 810/90 nm, beam splitter 750 nm LP), Cy5-(exciter 575-625 nm, emitter 660-710 nm BP, beam splitter 645 nm) and Cy3-filter set (exciter 546/12 nm, emitter 590 nm LP, beam splitter 580 nm). From all preparations, white light and fluorescence images were recorded with a CCD-camera (Visitron RTE/CCD-576) and digitally stored.

HT29 cells = assay: Cell imaging by fluorescence microscopy, HT29 cells; assay type: cell-based, human; details: 10 μM, 30 minutes of incubation, Cy7-filter set
Description: as §1

HT29-tumor = assay: In-vivo fluorescence imaging in tumor-carrying nude mice, HT29 tumor; details: 0.1 μmol/kg intravenously, one hour after administration
Source text: The imaging properties of the compounds according to the invention were studied in vivo after injection into tumor-carrying nude mice. […] The fluorescence of the substances was excited by irradiation of animals with near-infrared light of wavelength 640 nm (indodicarbocyanines) or 740 nm (indotricarbocyanines), which was produced with an Nd:YAG laser. The fluorescence radiation was detected at a wavelength of >700 nm or >800 nm by an intensified CCD-camera, and the fluorescence images were stored digitally.

Q: With “Indocarbocyanine-VIP (1-28)-conjugate (HSDAVFTDNYTRLRKQMAVKKYLNSILN; ends and bridges not checked; also: indocarbocyanine conjugate, position not given here) [conjugate 14]” as the substance, how does the “fluorescence image of the cells (pattern)” value (RIN38-VIP1-cells; Cy3-filter set) read?
A: The value was “intracellular fluorescence areas with a vesicular pattern in the membrane area of the cell”.

Q: How did the “fluorescence image of the cells (pattern, correlation with white light image)” value (HT29 cells) turn out when “Indotricarbocyanine-D-VIP (14-24)-conjugate (RKQMAVKKYLN; not fully specified; also: indotricarbocyanine dye conjugate, attachment site not given here) [conjugate 25]” was run?
A: The value was “Fluorescence dispersed homogeneously over the cells, good correlation with the white light image”.

Q: Which “fluorescence image of the cells (pattern, correlation with white light image)” value (RIN38-VIP1-cells; Cy7-filter set) does the source give for “(ξ-Amino-indotricarbocyanine)-Lys^25-VIP (14-25)-conjugate (RKQMAVKKYLNK(indotricarbocyanine)) [conjugate 24]” here?
A: The value was “homogeneous, intracellular near-nucleus fluorescence”.

Q: And the “increase in fluorescence intensity in the tumor relative to the contralateral flank” value (HT29-tumor; HT29 tumor in right rear flank)?
A: Its value is ~1.5 fold.

Q: And the “fluorescence outside the tumor (remainder of the body, kidneys)” value (HT29-tumor; HT29 tumor mouse)?
A: Its value is “increased fluorescence signal in the kidneys”.

Q: Which “fluorescence image of the cells (pattern, correlation with white light image)” value (HT29 cells) does the source give for “Indotricarbocyanine-VIP (1-28)-conjugate (HSDAVFTDNYTRLRKQMAVKKYLNSILN; ends and bridges not checked; also: indotricarbocyanine conjugate, position not given here) [conjugate 16]” here?
A: Its value is “largely homogeneous fluorescence dispersed over the cells; also recorded: areas of increased signals were visible, which can be associated with vesicular compartments”.
